Laboratory results reported in US20120316105A1, “Polymyxin Derivates Useful As Antibacterial Agents” (priority 2011, published 2012).
Bridge positions count the residues as written; N and C are the ends. Square brackets hold non-standard residues; d marks the D form. Peptide text beside a SMILES is read from it. * marks the point of attachment. X18 = N#Cc1ccc(-c2cc(C(=O)*)ccc2C#N)cc1; X4 = N#Cc1cccc(-c2cc(C(=O)*)ccc2C#N)c1; X21 = N#Cc1cccc(-c2cc(C(=O)*)ccn2)c1; X30 = O=C(c1ccc(Cl)c(-c2ccccc2)c1)*; X39 = COc1ccc(C(=O)*)cc1-c1ccccc1; X12 = O=C(c1cccc(-c2ccccc2F)c1)*; X23 = O=C(c1cnnc(-c2ccccc2)c1)*; X28 = O=C(c1ccc(Oc2ccccc2)nc1)*; Dab = NCC[C@H](N)C(=O)O; Dap = NC[C@H](N)C(=O)O

Key:
[1] = tested on: PA-1646, polymyxin-resistant clinical isolate of Pseudomonas aeruginosa; assay type: cell-based; details: PA-1646, polymyxin-resistant clinical isolate of
Procedure: (§1) Minimum bactericidal concentration (MBC, mg/L), minimum inhibitory concentration (MIC, mg/L), and human renal proximal tubule epithelial cell line cytotoxicity concentration 50% (hRPTEC, TC50, micromolar) for compounds of Formula I are listed in Table 2. The compounds of Formula I were tested as the corresponding trifluoroacetate salt except for Example 1 which was tested as the sulfate salt. For Table 2 below: PMB=polymyxin B as the sulfate salt (Bedford Laboratories, pharmaceutical grade); PMB1=polymyxin B1 as the trifluoroacetate salt; Nona=polymyxin B nonapeptide as the trifluoroacetate salt. PMB1 and Nona were prepared using the solid phase methodology described in the experimental section herein.
(§2) The in vitro antibacterial activity of compounds of Formula I was evaluated by MIC testing according to Clinical and Laboratory Standards Institute (CLSI). See: Clinical and Laboratory Standards Institute. Methods for Dilution Antimicrobial Susceptibility Tests for Bacteria that Grow Aerobically; Approved Standard-Eighth Edition. CLSI document M7-A8 [ISBN 1-56238-689-1]. Clinical and Laboratory Standards Institute, 940 West Valley Road, Suite 1400, Wayne, Pa. 19087-1898 USA, 2006; also Clinical and Laboratory Standards Institute. Performance Standards for Antimicrobial Susceptibility Testing; Twentieth Informational Supplement. CLSI document M100-S20 [ISBN 1-56238-716-2]. Clinical and Laboratory Standards Institute. Methods for Determining Bactericidal Activity of Antimicrobial Agents; Approved Guideline. CLSI document M26-A (ISBN 1-56238-384-1). CLSI, 940 West Valley Road, Suite 1400, Wayne, Pa. 19087-1898 USA, 1999.
PA-1646 is a polymyxin-resistant clinical isolate of Pseudomonas aeruginosa obtained from JMI labs (www.jmilabs.com);

[2] = tested on: AB-1649, polymyxin-resistant clinical isolate of Acinetobacter baumannii; assay type: cell-based; details: AB-1649, polymyxin-resistant clinical isolate of
Procedure: as §1, §2
(§3) The MIC determination is a standard laboratory method for evaluating the antibacterial activity of a compound. The MIC represents the lowest drug concentration that inhibits visible growth of bacteria following overnight incubation. […] Typically, the drug concentration range is broken down into 2-fold increments (e.g. 0.06 mg/L, 0.12 mg/L, 0.25 mg/L, 0.50 mg/L, 1.0 mg/L, etc.) and the various drug concentrations are all individually incubated overnight with approximately the same number of bacteria. The MIC is then determined by visually inspecting the drug effect at each concentration, and identifying the lowest drug concentration that has inhibited bacterial growth as compared to the drug free control. Typically, bacteria continue to grow at drug concentrations lower than the MIC and don't grow at concentrations at and above the MIC.
(§4) The MIC values described in Table 2 below were derived from assays wherein each test compound was evaluated in duplicate. In cases where the duplicate values varied by 0-2-fold, the lower of the two values was reported below. Generally speaking, if the duplicate values varied by more than 2-fold, the assay was considered non-valid and was repeated until the variation between duplicate runs was ≦2-fold. In line with the CLSI guidelines referred to above, both control organisms and reference compounds were utilized in each MIC assay to provide proper quality control. MIC values generated with these control organisms and reference compounds were required to fall within a defined range for the assay to be considered valid and be included herein. Those skilled in the art will recognize that MIC values can and do vary from experiment to experiment. Generally speaking, it should be recognized that MIC values often vary +/−2-fold from experiment to experiment. While a single MIC is reported for each compound and each microorganism, the reader should not conclude that each compound was only tested once. Several of the compounds were subjected to multiple tests. The data reported in Table 2 is reflective of the compounds relative activity and different MICs may have been generated on these occasions in line with the guidelines described above.
(§5) The following bacterial strains were used in these MIC determinations: […]

[3] = tested on: AB-3167, clinical isolate of Acinetobacter baumannii; assay type: cell-based; details: AB-3167, clinical isolate of
Procedure: as §1, §2, §3, §4, §5

[4] = tested on: PA-1646, polymyxin-resistant clinical isolate of Pseudomonas aeruginosa; assay type: cell-based; details: PA-1646, polymyxin-resistant clinical isolate of; remark: listed apart in the source
Procedure: as §1, §2, §3, §4, §5

[5] = tested on: Pseudomonas aeruginosa strain PA01; assay type: cell-based; details: strain
Procedure: as §1, §2, §3, §4, §5

[6] = tested on: AB-1649, polymyxin-resistant clinical isolate of Acinetobacter baumannii; assay type: cell-based; details: AB-1649, polymyxin-resistant clinical isolate of; remark: listed apart in the source
Procedure: as §1, §2
AB-1649 is a polymyxin-resistant clinical isolate of Acinetobacter baumannii obtained from JMI labs (www.jmilabs.com);

[7] = tested on: EC-1, mouse virulent strain of Escherichia coli; assay type: cell-based; details: E. coli EC-1; overnight incubation, lower of duplicate values; trifluoroacetate salt (Example 1 and PMB sulfate)
Procedure: as §1, §2, §3, §4
The following bacterial strains were used in these MIC determinations:
EC-1 is a mouse virulent strain of Escherichia coli.

[8] = Cytotoxicity assay (LDH release), hRPTEC; assay type: cell-based, human; details: human
Procedure: as §1
Human Renal Proximal Tubule Epithelial cells (hRPTEC) were obtained from Lonza (Walkersville, Md., USA) and cultured in REGM (Renal Epithelial Cell Basal Medium supplemented with human epithelial growth factor, hydrocortisone, epinephrine, insulin, triiodothyronine, transferrin, gentamycin/amphotericin-B, and fetal bovine serum). The hRPTEC cells were seeded into 96-well plates and incubated at 37° C. in 5% CO2. Following a growth period of 72 hours, cells were treated with compounds at 100, 67, 44, 30, 20 and 13 micromolar for 24 hours at 37° C. in 5% CO2. The cell supernatant was then harvested for determination of LDH (lactate dehydrogenase) production. The Cytotoxicity Detection Kit from Roche was used for the measurement of LDH activity released from damaged cells. The Toxic Concentration 50% (TC50, micromolar) values were determined for each compound and compared to the control compounds (polymyxin B was used as a positive control and polymyxin B nonapepetide was used as negative control).

SMILES | PA-1646 MBC [1] [µg/mL] | AB-1649 MIC [2] [µg/mL] | AB-3167 MIC [3] [µg/mL] | PA-1646 MIC [4] [µg/mL] | PA01 MIC [5] [µg/mL] | AB-1649 MBC [6] [µg/mL] | EC-1 MIC [7] [µg/mL] | CC50 at 24 h [8] [µM]
CC(C)C[C@@H]1NC(=O)[C@@H](Cc2ccccc2)NC(=O)[C@H](CCN)NC(=O)[C@@H](NC(=O)[C@H](CN)NC(=O)[C@@H](NC(=O)[C@H](CCN)NC(=O)c2cccc(-c3ccccc3F)c2)[C@@H](C)O)CCNC(=O)[C@H]([C@@H](C)O)NC(=O)[C@H](CCN)NC(=O)[C@H](CCN)NC1=O [Example 9] (X12-[Dab]T[Dap][Dab][Dab][dF]L[Dab][Dab]T; lactam 4-C) | 2 | 1 | 0.25 | 2 | 0.5 | 2 | 0.25 | 24
CC(C)C[C@@H]1NC(=O)[C@@H](Cc2ccccc2)NC(=O)[C@H](CCN)NC(=O)[C@@H](NC(=O)[C@H](CN)NC(=O)[C@@H](NC(=O)[C@H](CCN)NC(=O)c2ccc(Cl)c(-c3ccccc3)c2)[C@@H](C)O)CCNC(=O)[C@H]([C@@H](C)O)NC(=O)[C@H](CCN)NC(=O)[C@H](CCN)NC1=O [Example 10] (X30-[Dab]T[Dap][Dab][Dab][dF]L[Dab][Dab]T; lactam 4-C) | 1 | 1 | 0.5 | 0.5 | 1 | 1 | 0.25 | 14
CC(C)C[C@@H]1NC(=O)[C@@H](Cc2ccccc2)NC(=O)[C@H](CCN)NC(=O)[C@@H](NC(=O)[C@H](CN)NC(=O)[C@@H](NC(=O)[C@H](CCN)NC(=O)c2cnnc(-c3ccccc3)c2)[C@@H](C)O)CCNC(=O)[C@H]([C@@H](C)O)NC(=O)[C@H](CCN)NC(=O)[C@H](CCN)NC1=O [Example 11] (X23-[Dab]T[Dap][Dab][Dab][dF]L[Dab][Dab]T; lactam 4-C) | 8 | 2 | 0.25 | 2 | 0.25 | 4 | 0.125 | 84
CC(C)C[C@@H]1NC(=O)[C@@H](Cc2ccccc2)NC(=O)[C@H](CCN)NC(=O)[C@@H](NC(=O)[C@H](CN)NC(=O)[C@@H](NC(=O)[C@H](CCN)NC(=O)c2ccc(Oc3ccccc3)nc2)[C@@H](C)O)CCNC(=O)[C@H]([C@@H](C)O)NC(=O)[C@H](CCN)NC(=O)[C@H](CCN)NC1=O [Example 12] (X28-[Dab]T[Dap][Dab][Dab][dF]L[Dab][Dab]T; lactam 4-C) | 16 | 2 | 0.25 | 4 | 1 | 4 | 0.25 | 61
CC(C)C[C@@H]1NC(=O)[C@@H](Cc2ccccc2)NC(=O)[C@H](CCN)NC(=O)[C@@H](NC(=O)[C@H](CN)NC(=O)[C@@H](NC(=O)[C@H](CCN)NC(=O)c2ccc(C#N)c(-c3ccc(C#N)cc3)c2)[C@@H](C)O)CCNC(=O)[C@H]([C@@H](C)O)NC(=O)[C@H](CCN)NC(=O)[C@H](CCN)NC1=O [Example 13] (X18-[Dab]T[Dap][Dab][Dab][dF]L[Dab][Dab]T; lactam 4-C) | 4 | 2 | 0.25 | 2 | 0.5 | 2 | 0.25 | 58
CC(C)C[C@@H]1NC(=O)[C@@H](Cc2ccccc2)NC(=O)[C@H](CCN)NC(=O)[C@@H](NC(=O)[C@H](CN)NC(=O)[C@@H](NC(=O)[C@H](CCN)NC(=O)c2ccc(C#N)c(-c3cccc(C#N)c3)c2)[C@@H](C)O)CCNC(=O)[C@H]([C@@H](C)O)NC(=O)[C@H](CCN)NC(=O)[C@H](CCN)NC1=O [Example 14] (X4-[Dab]T[Dap][Dab][Dab][dF]L[Dab][Dab]T; lactam 4-C) | 16 | 2 | 0.5 | 4 | 0.5 | 2 | 0.5 | 43
CC(C)C[C@@H]1NC(=O)[C@@H](Cc2ccccc2)NC(=O)[C@H](CCN)NC(=O)[C@@H](NC(=O)[C@H](CN)NC(=O)[C@@H](NC(=O)[C@H](CCN)NC(=O)c2ccnc(-c3cccc(C#N)c3)c2)[C@@H](C)O)CCNC(=O)[C@H]([C@@H](C)O)NC(=O)[C@H](CCN)NC(=O)[C@H](CCN)NC1=O [Example 15] (X21-[Dab]T[Dap][Dab][Dab][dF]L[Dab][Dab]T; lactam 4-C) | 16 | 2 | 0.25 | 4 | 0.5 | 2 | 0.125 | 43
COc1ccc(C(=O)N[C@@H](CCN)C(=O)N[C@H](C(=O)N[C@@H](CN)C(=O)N[C@H]2CCNC(=O)[C@H]([C@@H](C)O)NC(=O)[C@H](CCN)NC(=O)[C@H](CCN)NC(=O)[C@H](CC(C)C)NC(=O)[C@@H](Cc3ccccc3)NC(=O)[C@H](CCN)NC2=O)[C@@H](C)O)cc1-c1ccccc1 [Example 16] (X39-[Dab]T[Dap][Dab][Dab][dF]L[Dab][Dab]T; lactam 4-C) | 2 | 2 | 0.5 | 1 | 0.5 | 2 | 0.25 | 27
